Laboratory results as given in patent US20080279769A1, “Enzyme Inhibitor Imaging Agents” (priority 2004, published 2008).
Blank lines part the entries; values can stand above or below the molecule they belong to.

Legend:
[1] = test system: Lewis Lung [LLC] Carcinoma Tumour model; test: Biodistribution in animal tumour model of MMP expression; assay type: in vivo; conditions: for % ID/g Tumour: 15 days tumour growth
Text: The in vivo Lewis Lung [LLC] Carcinoma Tumour model has been used for screening of MMP is due to reproducible up-regulation of several MMPs in the tumour. As such, this model provides a good assessment of the efficacy of the MMP is for in vivo targeting of lesions that express MMPs. Literature reports have shown that LLC cells express pro and active MMP-2 and pro NMP-9 and LLC tumours MMP-2 and MMP-9 (not classified as pro or active) [Bae et al Drugs Exp Clin Res. 29(1):15-23 (2003)].

[2] = test system: ApoE ligation model; test: Biodistribution in ApoE ligated animal model of MMP expression; assay type: in vivo, mice; conditions: for Carotid: Blood / Carotid: Heart: ratio
Text: The ApoE ligation model was also studied. ApoE mice are transgenic knock-out mice, which lack the ApoE gene, and are therefore unable to regulate their plasma cholesterol levels. As a consequence ApoE mice develop atherosclerotic lesions, a process which is accelerated with feeding of high fat diet. Further acceleration of lesion development can be achieved by ligating the carotid artery, resulting in advanced lesion formation within 4 weeks of surgery and high fat diet feeding. […] 105, 2686-2691 (2002)].

[3] = biological target: T1, MMP-1 (Homo sapiens, UniProt P03956); test: In vitro metalloproteinase inhibition assay (colorimetric, thiopeptolide substrate), MMP-1; assay type: biochemical
T1 sequence (P03956 100-469): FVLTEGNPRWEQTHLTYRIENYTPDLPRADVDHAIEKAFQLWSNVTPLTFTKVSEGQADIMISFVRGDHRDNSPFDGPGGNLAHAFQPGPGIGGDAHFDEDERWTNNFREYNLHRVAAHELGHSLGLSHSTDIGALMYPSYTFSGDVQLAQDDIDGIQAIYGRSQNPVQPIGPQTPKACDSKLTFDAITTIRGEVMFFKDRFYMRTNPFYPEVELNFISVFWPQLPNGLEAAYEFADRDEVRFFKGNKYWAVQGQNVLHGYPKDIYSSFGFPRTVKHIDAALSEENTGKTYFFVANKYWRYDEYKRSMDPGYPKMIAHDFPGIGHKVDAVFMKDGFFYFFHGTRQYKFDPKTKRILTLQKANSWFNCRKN
Procedure: [The source words this procedure for another target and reports this target under the same test.] (§1) Compounds were screened using the following commercially available Biomol assay kits:
(§2) MMP-2 colorimetric assay kit-Catalogue number AK-408, MMP-9 colorimetric assay kit-Catalogue number AK-410, MMP-12 colorimetric assay kit-Catalogue number AK-402, Which are available from Affiniti Research Products Ltd. (Palatine House, Matford Court, Exeter, EX2 8NL, UK).
(§3) Inhibitors were provided in powdered form, and stored at 4° C. For each inhibitor a 1 mM stock solution in DMSO was prepared, dispensed into 20 μl aliquots and these aliquots stored at −20° C. The stock solution was diluted to give 8 inhibitor concentrations (recommended: 50 μM, 5 μM, 500 mM, 50 mM, 5 nM, 500 μM, 50 μM and 5 μM). Dilutions were made in the kit assay buffer. A five-fold dilution of the inhibitor stocks is made on addition to the assay wells, therefore final concentration range was from 10 μM to 1 pM.
(§4) Details are provided with the commercial kit, but can be summarised as follows: • Prepare test compound dilutions as above, • Add assay buffer to plate, • Add test compounds to plate • Prepare standard kit inhibitor NNGH (see kit for dilution factor) • Add NNGH to control inhibitor wells • Prepare MMP enzyme (see kit for dilution factor) • Add MMP to plate • Incubate plate at 37° C. for ˜15 min • Prepare thiopeptolide substrate (see kit for dilution factor) • Add substrate to plate • Count every 2 min for 1 hr, 37° C., 414 nm on a Labsystems iEMS plate reader.

[4] = biological target: MMP-12 (Homo sapiens, UniProt P39900); test: In vitro metalloproteinase inhibition assay (Biomol MMP-12 colorimetric assay kit); assay type: biochemical
Procedure: as §1, §2, §3, §4

[5] = biological target: MMP-2 (Homo sapiens, UniProt P08253); test: In vitro metalloproteinase inhibition assay (Biomol MMP-2 colorimetric assay kit); assay type: biochemical
Procedure: as §1
as §3, with “The stock solution was diluted to give 8 inhibitor concentrations (recommended: 50 μM, 5 μM, 500 mM, 50 mM, 5 nM, 500 μM, 50 μM and 5 μM).” left out

[6] = biological target: MMP-9 (Homo sapiens, UniProt P14780); test: In vitro metalloproteinase inhibition assay (Biomol MMP-9 colorimetric assay kit); assay type: biochemical
Procedure: as §1
as §3, with “The stock solution was diluted to give 8 inhibitor concentrations (recommended: 50 μM, 5 μM, 500 mM, 50 mM, 5 nM, 500 μM, 50 μM and 5 μM).” left out

[7] = between 5 and 120 minutes post injection

Sequence of MMP-9 (P14780 107-444 limits assumed): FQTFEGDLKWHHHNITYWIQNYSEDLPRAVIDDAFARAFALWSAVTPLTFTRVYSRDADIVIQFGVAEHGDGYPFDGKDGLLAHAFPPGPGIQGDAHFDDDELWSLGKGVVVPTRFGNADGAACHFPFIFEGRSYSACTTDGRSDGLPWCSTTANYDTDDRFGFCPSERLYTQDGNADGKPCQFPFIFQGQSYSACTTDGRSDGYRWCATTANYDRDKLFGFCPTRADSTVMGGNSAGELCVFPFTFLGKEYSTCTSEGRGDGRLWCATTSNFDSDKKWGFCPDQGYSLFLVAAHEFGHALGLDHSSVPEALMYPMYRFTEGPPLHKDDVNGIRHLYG
Sequence of MMP-2 (P08253 110-446 limits assumed): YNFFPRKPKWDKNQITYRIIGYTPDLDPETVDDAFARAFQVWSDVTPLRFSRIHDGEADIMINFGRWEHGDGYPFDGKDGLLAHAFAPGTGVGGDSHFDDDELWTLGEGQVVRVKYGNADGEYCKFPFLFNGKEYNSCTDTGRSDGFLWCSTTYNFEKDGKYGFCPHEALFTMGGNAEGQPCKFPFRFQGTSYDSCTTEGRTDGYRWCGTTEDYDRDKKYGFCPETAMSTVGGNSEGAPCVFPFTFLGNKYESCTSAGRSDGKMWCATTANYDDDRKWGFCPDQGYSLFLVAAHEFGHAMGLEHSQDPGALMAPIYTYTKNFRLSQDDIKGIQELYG
Sequence of MMP-12 (P39900 106-263 limits assumed): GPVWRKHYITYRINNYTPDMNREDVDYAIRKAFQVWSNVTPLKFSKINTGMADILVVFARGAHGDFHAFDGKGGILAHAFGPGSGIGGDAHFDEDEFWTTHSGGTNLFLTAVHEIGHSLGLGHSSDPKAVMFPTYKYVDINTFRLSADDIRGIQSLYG

Structure (SMILES): CNC(=O)[C@H](Cc1ccc([123I])cc1)NC(=O)C[C@@H](CC(C)C)C(=O)NO [Compound 2A]
% ID GI Excretion ([1]; 5 min post injection): 17.81 % ID
% ID Heart ([1]; 5 min post injection): 0.86 % ID
% ID Liver ([1]; 5 min post injection): 29.76 % ID
% ID Lung ([1]; 5 min post injection): 1.38 % ID
% ID Urinary Excretion ([1]; 5 min post injection): 19.85 % ID
% ID/g Blood ([1]; 5 min post injection): 5.89 % ID/g
% ID/g Tumour ([1]; 5 min post injection): 1.39 % ID/g
% ID GI Excretion ([1]; 30 min post injection): 28.46 % ID
% ID Heart ([1]; 30 min post injection): 0.57 % ID
% ID Liver ([1]; 30 min post injection): 24.43 % ID
% ID Lung ([1]; 30 min post injection): 0.73 % ID
% ID Urinary Excretion ([1]; 30 min post injection): 22.52 % ID
% ID/g Blood ([1]; 30 min post injection): 2.19 % ID/g
% Retained Tumour ([1]; 30 min post injection): 78%
% ID/g Tumour ([1]; 30 min post injection): 1.08 % ID/g
% ID GI Excretion ([1]; 60 min post injection): 29.5 % ID
% ID Heart ([1]; 60 min post injection): 0.56 % ID
% ID Liver ([1]; 60 min post injection): 20.04 % ID
% ID Lung ([1]; 60 min post injection): 0.59 % ID
% ID Urinary Excretion ([1]; 60 min post injection): 27.7 % ID
% ID/g Blood ([1]; 60 min post injection): 1.49 % ID/g
% Retained Tumour ([1]; 60 min post injection): 87%
% ID/g Tumour ([1]; 60 min post injection): 1.21 % ID/g
% ID GI Excretion ([1]; 120 min post injection): 34.42 % ID
% ID Heart ([1]; 120 min post injection): 0.49 % ID
% ID Liver ([1]; 120 min post injection): 13.45 % ID
% ID Lung ([1]; 120 min post injection): 0.45 % ID
% ID Urinary Excretion ([1]; 120 min post injection): 31.03 % ID
% ID/g Blood ([1]; 120 min post injection): 1.38 % ID/g
% Retained Tumour ([1]; 120 min post injection): 97%
% ID/g Tumour ([1]; 120 min post injection): 1.35 % ID/g
clearance from normal tissues [e.g. blood and other background tissues] ([1]; between 5 and 120 minutes p.i.): occurred between 5 and 120 minutes p.i.
tumour uptake and retention [1, 7]: exhibited tumour uptake and retention
% ID/g Blood ([2]; 5 min post injection): 6.5 % ID/g
% ID/g Carotid ([2]; 5 min post injection): 3.3 % ID/g
% ID/g Heart ([2]; 5 min post injection): 5.5 % ID/g
% ID/g Blood ([2]; 120 min post injection): 1.5 % ID/g
% ID/g Carotid ([2]; 120 min post injection): 2.7 % ID/g
% ID/g Heart ([2]; 120 min post injection): 3.6 % ID/g
% Retained Carotid ([2]; 120 min post injection): 83%
% ID/g Blood ([2]; 360 min post injection): 1.6 % ID/g
% ID/g Carotid ([2]; 360 min post injection): 1.6 % ID/g
% ID/g Heart ([2]; 360 min post injection): 1.5 % ID/g
% Retained Carotid ([2]; 360 min post injection): 47%
carotid uptake and retention [2, 7]: exhibited carotid uptake and retention
carotid to blood ratios ([2]; mouse, in vivo): good
clearance from normal tissues [e.g. blood and other background tissues] ([2]; mouse, in vivo): significant
Carotid: Blood ([2]; 5 min post injection): 0.5
Carotid: Heart ([2]; 5 min post injection): 0.8
Carotid: Blood ([2]; 120 min post injection): 1.8
Carotid: Heart ([2]; 120 min post injection): 0.8
Carotid: Blood ([2]; 360 min post injection): 1.0
Carotid: Heart ([2]; 360 min post injection): 1.0

Ki [3]: 1.77 nM
Ki [4]: 0.4 ± 0.04 nM
Ki [5]: 0.2 ± 0.11 nM
Ki [6]: 0.11 ± 0.08 nM
Structure (SMILES): CNC(=O)[C@H](Cc1ccc(I)cc1)NC(=O)[C@@H](CC(=O)NO)CC(C)C [Compound 3]

% ID/g Blood ([2]; 5 min post injection): 9.9 % ID/g
% ID/g Carotid ([2]; 5 min post injection): 3.9 % ID/g
% ID/g Heart ([2]; 5 min post injection): 9.8 % ID/g
% ID/g Blood ([2]; 60 min post injection): 3.2 % ID/g
% ID/g Carotid ([2]; 60 min post injection): 1.4 % ID/g
% ID/g Heart ([2]; 60 min post injection): 2.2 % ID/g
% Retained Carotid ([2]; 60 min post injection): 36%
% ID/g Blood ([2]; 120 min post injection): 2.5 % ID/g
% ID/g Carotid ([2]; 120 min post injection): 1.4 % ID/g
% ID/g Heart ([2]; 120 min post injection): 1.5 % ID/g
% Retained Carotid ([2]; 120 min post injection): 37%
Carotid: Blood ([2]; 5 min post injection): 0.3
Carotid: Heart ([2]; 5 min post injection): 0.4
Carotid: Blood ([2]; 60 min post injection): 0.6
Carotid: Heart ([2]; 60 min post injection): 0.7
Carotid: Blood ([2]; 120 min post injection): 0.6
Carotid: Heart ([2]; 120 min post injection): 1.0
Structure (SMILES): CC(C)C[C@H](CC(=O)N[C@@H](Cc1c[nH]c2ccccc12)C(=O)NCc1ccc([123I])cc1)C(=O)NO [Compound 6A]

Ki [3]: 1.57 ± 2.37 nM
Structure (SMILES): CC(C)C[C@H](CC(=O)NO)C(=O)N[C@@H](Cc1c[nH]c2ccccc12)C(=O)NCc1ccc(I)cc1 [Compound 7]
